“Also recorded” adds a separate entry of the source. Where a name gives a salt, the structure may show the parent alone. Read-outs that look alike come from different tables or passages of the source.
Legend:
[1] = biological target: T1, recombinant NMDA receptors (NR1100 and NR2A subunits) (Rattus norvegicus, UniProt P35439+Q00959); assay: Two electrode voltage-clamp of Xenopus oocytes expressing recombinant NMDA receptors; type: cell-based
T1 construct: expressed in transfected cells; host or cells: Xenopus laevis oocytes injected with in vitro transcribed mRNA
Experimental: RNA preparation. mRNA were prepared through in vitro transcription of NR1100 and NR2A cDNAs using the mMessage mMachine kit (Ambion, Tex.). NR1100 and NR2A clones were kindly provided by Dr. Zukin and Dr. Nakanishie.
Xenopus expression system. Female, oocyte positive Xenopus laevis frogs were purchased from Nasco, Inc. (WI). The frogs were kept on a 12/12 light-dark cycle and maintained on a diet of chopped calf liver every 3 days. Prior to surgery, frogs were anesthetized in a 0.15% Tricaine solution (Sigma, Mo.) for 30-45 minutes. Ovarian sections containing the follicular oocytes were removed through a lateral abdominal incision and were immediately placed in calcium-free ND96 solution (in mM):96 NaCl; 1 MgCl2; 2 KCl; 5 Hepes; 2.5 pyruvate (pH adjusted to 7.4 with NaOH). Following a 2 hr. incubation in 0.2% collagenase type II (Sigma, Mo.) at room temperature, individual defolliculated oocytes were transferred into 60×15 mm glass petri dishes containing ND96 solution (in mM): 96 NaCl; 1 MgCl2; 2 KCl; 1.8 CaCl2; 5 Hepes; 2.5 pyruvate (pH adjusted to 7.4 with NaOH). The isolated oocytes were maintained in an incubator at 18° C. On the following date, batches of 20-40 selected oocytes (Dumont stage V and VI) were injected with 50 nl of prepared RNA solution (0.5 ng of NR1 and 12 ng of NR2A mRNAs per oocyte) using an electronic microinjector (Drummond, Pa.). The injected oocytes were used for electrophysiological experiments following 4-10 day incubation at 18° C.
Electrical recording and drug application. The ion current recordings were obtained in two electrodes voltage-clamp mode using an Axoclamp-2A amplifier (Axon Instruments, Inc., CA). The microelectrodes were fabricated with a programmed puller (Sutter Instrument Co., CA) from glass capillaries (Dagan, Minn.) and filled with 3M KCl solution. The resistance of filled microelectrodes was in the range of 2.5-3.5 M.OMEGA.. The oocytes were clamped at a holding potential of -70 mV. The membrane current was filtered at 500 Hz and sampled at 100 Hz frequency. The drugs were applied using a gravity driven external perfusion system. The data acquisition and external perfusion control were done using SuperScopeII software package (GW Instruments, MA). All experiments were performed at room temperature of 22-24° C.
The degree of modulation of the amino acid response by steroids, the percent change, was defined at (I'/I-1)×100%, where I and I' are respectively the agonist-induced currents in the absence and presence of steroid. Throughout, results are expressed as mean±SEM; statistical comparison of groups was carried out using Student's t test.

[2] = tested on: glutamate receptor-mediated spontaneous EPSCs in rat hippocampal neurons; assay: Spontaneous excitatory postsynaptic currents (EPSCs), whole-cell recording in cultured hippocampal neurons; type: cell-based; conditions: for effect on spontaneous EPSCs: cultures of rat hippocampal neurons; for EC50: voltage-clamped at -70 mV, read-out: EC50 of EPSC potentiation
Experimental: Primary cultures of hippocampal neurons were prepared from embryonic day 18 rats. Cultured neurons were used in experiments 2-3 weeks after plating.
Spontaneous excitatory postsynaptic currents were recorded by the whole-cell variant of the patch clamp technique. The pipet solution usually contained (in mM) KCl 10, EGTA 11, sodium gluconate 3, potassium gluconate 140 and HEPES 10, adjusted to pH 7.2 with KOH. The bath solution contained (in mM) NaCl 150, KCl 4, CaCl2 1, and HEPES 10, adjusted to pH 7.2 with NaOH. Because NMDA-induced currents are subject to voltage-dependent block by extracellular Mg^2+, no magnesium salts were added to the bath solution. All records were made with the cell membrane potential clamped at -70 mV, which is very close to the Cl- equilibrium potential. Therefore, IPSCs are not expected to be observed and spontaneous activity should consist of EPSCs. The complete blockage of spontaneous activity by the co-application of the NMDA receptor antagonist APV and the non-NMDA receptor antagonist DNQX argues that the observed spontaneous activity is glutamate receptor-mediated.
Drug solutions were applied to single neurons by pressure ejection (15 psi) from 7-barrel pipets (tip opening ~3-5 μm) positioned ~50 μm from the neuronal soma. In all experiments, neurons received a 40s application of either steroid or steroid plus antagonist(s), followed by 10-20s pulse of external buffer solution.

T1 sequence (Q00959 23-1464, other chains not shown): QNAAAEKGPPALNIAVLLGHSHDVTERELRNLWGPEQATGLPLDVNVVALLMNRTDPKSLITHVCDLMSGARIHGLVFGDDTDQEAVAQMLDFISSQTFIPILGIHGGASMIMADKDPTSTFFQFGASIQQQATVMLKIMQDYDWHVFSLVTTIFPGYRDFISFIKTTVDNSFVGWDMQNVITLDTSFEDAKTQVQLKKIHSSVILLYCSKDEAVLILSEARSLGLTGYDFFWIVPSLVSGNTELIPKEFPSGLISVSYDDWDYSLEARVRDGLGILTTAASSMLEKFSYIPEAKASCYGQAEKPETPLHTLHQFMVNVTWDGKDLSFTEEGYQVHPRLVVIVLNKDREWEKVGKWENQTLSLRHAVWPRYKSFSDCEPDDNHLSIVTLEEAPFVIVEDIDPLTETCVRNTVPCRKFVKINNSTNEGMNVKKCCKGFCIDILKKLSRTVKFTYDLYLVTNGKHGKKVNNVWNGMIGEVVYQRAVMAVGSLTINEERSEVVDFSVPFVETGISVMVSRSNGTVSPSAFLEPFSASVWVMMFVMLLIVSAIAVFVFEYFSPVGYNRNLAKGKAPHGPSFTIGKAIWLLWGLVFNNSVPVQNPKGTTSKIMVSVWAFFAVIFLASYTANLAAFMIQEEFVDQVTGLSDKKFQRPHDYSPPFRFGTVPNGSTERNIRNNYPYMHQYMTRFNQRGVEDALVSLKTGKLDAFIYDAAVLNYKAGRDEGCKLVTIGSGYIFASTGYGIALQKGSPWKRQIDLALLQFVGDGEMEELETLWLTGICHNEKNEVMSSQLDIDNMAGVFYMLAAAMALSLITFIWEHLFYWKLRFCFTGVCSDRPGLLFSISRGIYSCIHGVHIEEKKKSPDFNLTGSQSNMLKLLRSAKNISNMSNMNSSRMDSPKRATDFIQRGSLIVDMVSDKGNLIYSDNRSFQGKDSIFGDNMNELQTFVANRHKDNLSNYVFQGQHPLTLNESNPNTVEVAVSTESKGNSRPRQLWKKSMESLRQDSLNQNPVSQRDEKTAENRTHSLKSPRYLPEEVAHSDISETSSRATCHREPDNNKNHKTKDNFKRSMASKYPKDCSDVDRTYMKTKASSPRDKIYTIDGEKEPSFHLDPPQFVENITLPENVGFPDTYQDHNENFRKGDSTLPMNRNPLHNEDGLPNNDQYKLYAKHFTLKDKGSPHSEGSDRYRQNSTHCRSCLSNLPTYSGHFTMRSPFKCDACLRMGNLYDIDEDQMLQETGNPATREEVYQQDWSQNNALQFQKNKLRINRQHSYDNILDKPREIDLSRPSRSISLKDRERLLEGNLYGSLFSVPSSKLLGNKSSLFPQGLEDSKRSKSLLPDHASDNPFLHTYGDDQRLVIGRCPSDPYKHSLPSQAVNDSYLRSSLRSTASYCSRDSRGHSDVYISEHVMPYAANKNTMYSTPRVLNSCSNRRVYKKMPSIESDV

Row | SMILES | effect on NMDA responses of NR1100/NR2A injected oocytes [1] | effect on spontaneous EPSCs [2] | activation at 100 µM ([1]; 100 μM steroid, read-out: potentiation of a near maximal NMDA response (200 μM)) | potentiation of EPSCs with NMDA receptors blocked ([2]; 100 μM steroid, APV (40 μM)) | EC50 ([2]; listed as pregnenolone sulfate) | EC50 [2]
1 | CC(=O)[C@H]1CC[C@H]2[C@@H]3CC[C@@H]4C[C@H](OS(=O)(=O)O)CC[C@]4(C)[C@H]3CC[C@]12C [5β3αS, 3α-hydroxy-5β-pregnan-20-one sulfate] | had an inhibitory effect | inhibits spontaneous EPSCs |  |  |  | 
2 | CC(=O)C1CCC2C3CC=C4CC(OS(=O)(=O)O)CCC4(C)C3CCC12C (stereo not shown) [PS, pregnenolone sulfate] |  | potentiates spontaneous EPSCs; also recorded: potentiates spontaneous excitatory post-synaptic currents | 292 ± 34% | reduced | 11.9 µM | 5.6 µM

Reference: patent US6083941A, “Inhibition of NMDA receptor activity by pregnenolone sulfate derivatives” (Trustees of Boston University, priority 1998, dated 2000)
